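Assay format: 96-well plates, 48-hour exposure. GI50: concentration for 50% inhibition of growth.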 Active and inactive are the calls of the source. Rule as the data show it: active = GI50 up to about 1.1 µM and inactive = higher.
Columns and labels:
Test in all cases: DTP human tumour cell line panel, 48 h
786-0 = system: 786-0
A498 = system: A498
ACHN = system: ACHN
HCC 2998 = system: HCC 2998
HCT-116 = system: HCT-116
HOP-62 = system: HOP-62
HOP-92 = system: HOP-92
KM12 = system: KM12
LOX IMVI = system: LOX IMVI
M14 = system: M14
MDA-MB-435 = system: MDA-MB-435
NCI/ADR-RES = system: NCI/ADR-RES
OVCAR-3 = system: OVCAR-3
OVCAR-5 = system: OVCAR-5
SF-295 = system: SF-295
SK-MEL-28 = system: SK-MEL-28
TK-10 = system: TK-10
UACC-62 = system: UACC-62
MDA-N = system: MDA-N
SK-OV-3 = system: SK-OV-3

Row | Structure (SMILES) | GI50 (786-0) | GI50 (A498) | GI50 (ACHN) | GI50 (HCC 2998) | GI50 (HCT-116) | GI50 (HOP-62) | GI50 (HOP-92) | GI50 (KM12) | GI50 (LOX IMVI) | GI50 (M14) | GI50 (MDA-MB-435) | GI50 (NCI/ADR-RES) | GI50 (OVCAR-3) | GI50 (OVCAR-5) | GI50 (SF-295) | GI50 (SK-MEL-28) | GI50 (TK-10) | GI50 (UACC-62) | GI50 (MDA-N) | GI50 (SK-OV-3)
1 | CCOC(=O)c1nc2ccccc2nc1Nc1ccc(OC)cc1 | 27.6 µM (inactive) | 18.6 µM (inactive) | 32.4 µM (inactive) | > 100 µM (inactive) | 42.3 µM (inactive) | 15 µM (inactive) | 22.5 µM (inactive) | > 100 µM (inactive) | > 100 µM (inactive) | > 100 µM (inactive) | > 100 µM (inactive) | 34.8 µM (inactive) | 19.7 µM (inactive) | 83.8 µM (inactive) | 19.5 µM (inactive) | 54.7 µM (inactive) | 25.7 µM (inactive) | 28.5 µM (inactive) | – | –
2 | CCn1c(-c2cc(OC)cc(OC)c2)nc2c1C(=O)c1ccccc1C2=O | 45.4 µM (inactive) | – | > 100 µM (inactive) | > 100 µM (inactive) | > 100 µM (inactive) | 64.6 µM (inactive) | 60 µM (inactive) | > 100 µM (inactive) | – | > 100 µM (inactive) | > 100 µM (inactive) | > 100 µM (inactive) | > 100 µM (inactive) | > 100 µM (inactive) | 29.2 µM (inactive) | > 100 µM (inactive) | > 100 µM (inactive) | 20.6 µM (inactive) | > 100 µM (inactive) | 3.9 µM (inactive)
3 | c1ccc2c(c1)CCc1c-2n(CCN2CCCCC2)c2ccccc12 | 16.3 µM (inactive) | – | 18.7 µM (inactive) | 13.1 µM (inactive) | 12.5 µM (inactive) | 15.8 µM (inactive) | 16.4 µM (inactive) | 14.9 µM (inactive) | 15.1 µM (inactive) | 13.5 µM (inactive) | 25.4 µM (inactive) | 16.8 µM (inactive) | 16.6 µM (inactive) | 15.5 µM (inactive) | 16.9 µM (inactive) | 19.6 µM (inactive) | 19.1 µM (inactive) | 14.8 µM (inactive) | – | 23.7 µM (inactive)
4 | N#CCC(=O)NC1C2CC3CC(C2)CC1C3 (configuration not stated) | 19.5 µM (inactive) | 16.5 µM (inactive) | 19.1 µM (inactive) | 18 µM (inactive) | 15.2 µM (inactive) | 23.4 µM (inactive) | 18.3 µM (inactive) | 17.7 µM (inactive) | 10.7 µM (inactive) | 19.9 µM (inactive) | – | – | 18.1 µM (inactive) | 22.1 µM (inactive) | 16.7 µM (inactive) | 19.1 µM (inactive) | 19.4 µM (inactive) | 15.1 µM (inactive) | – | 37.4 µM (inactive)
5 | COc1cc2c[n+](C)c3c4ccccc4ccc3c2cc1OC.COc1cc2cnc3c4ccccc4ccc3c2cc1OC | 12.3 µM (inactive) | – | 73.1 µM (inactive) | 8.47 µM (inactive) | 7.83 µM (inactive) | 19.1 µM (inactive) | 10.6 µM (inactive) | 0.859 µM (active) | 11.5 µM (inactive) | 20.2 µM (inactive) | 2.87 µM (inactive) | 10 µM (inactive) | 4.13 µM (inactive) | 17.3 µM (inactive) | 19.6 µM (inactive) | 5.5 µM (inactive) | 26.6 µM (inactive) | 6.68 µM (inactive) | 7.05 µM (inactive) | 9.29 µM (inactive)
6 | O=C(Cn1c(-c2ccccc2)cc2ccccc21)N1CCCC1 | > 100 µM (inactive) | – | > 100 µM (inactive) | – | > 100 µM (inactive) | > 100 µM (inactive) | > 100 µM (inactive) | – | > 100 µM (inactive) | > 100 µM (inactive) | – | > 100 µM (inactive) | > 100 µM (inactive) | > 100 µM (inactive) | > 100 µM (inactive) | – | – | > 100 µM (inactive) | > 100 µM (inactive) | > 100 µM (inactive)
7 | Cc1c(C(=O)C(=O)c2ccccc2)c(C)c(C(=O)C(=O)c2ccccc2)c(C)c1C(=O)C(=O)c1ccccc1 | > 100 µM (inactive) | – | > 100 µM (inactive) | > 100 µM (inactive) | > 100 µM (inactive) | > 100 µM (inactive) | – | > 100 µM (inactive) | – | > 100 µM (inactive) | > 100 µM (inactive) | > 100 µM (inactive) | – | > 100 µM (inactive) | > 100 µM (inactive) | > 100 µM (inactive) | > 100 µM (inactive) | – | > 100 µM (inactive) | > 100 µM (inactive)
8 | C(=N\OCCc1ccccc1)/c1cccnc1 | > 100 µM (inactive) | – | > 100 µM (inactive) | > 100 µM (inactive) | > 100 µM (inactive) | > 100 µM (inactive) | > 100 µM (inactive) | > 100 µM (inactive) | – | > 100 µM (inactive) | > 100 µM (inactive) | > 100 µM (inactive) | > 100 µM (inactive) | > 100 µM (inactive) | > 100 µM (inactive) | > 100 µM (inactive) | > 100 µM (inactive) | > 100 µM (inactive) | > 100 µM (inactive) | > 100 µM (inactive)
9 | O=C1/C(=C/c2ccc(Br)s2)NC(=S)N1c1ccccc1 | 40.8 µM (inactive) | 51.1 µM (inactive) | 32.1 µM (inactive) | > 100 µM (inactive) | 44.4 µM (inactive) | 39.1 µM (inactive) | 25.7 µM (inactive) | > 100 µM (inactive) | > 100 µM (inactive) | – | 86.3 µM (inactive) | – | 62.4 µM (inactive) | > 100 µM (inactive) | 43.6 µM (inactive) | > 100 µM (inactive) | > 100 µM (inactive) | 47.2 µM (inactive) | > 100 µM (inactive) | 45.6 µM (inactive)
10 | COc1ccc(C(OCC2OC3(COC(c4ccccc4)(c4ccc(OC)cc4)c4ccc(OC)cc4)C(Oc4nc(=O)ccn43)C2O)(c2ccccc2)c2ccc(OC)cc2)cc1 (configuration not stated) | > 100 µM (inactive) | – | > 100 µM (inactive) | – | > 100 µM (inactive) | > 100 µM (inactive) | – | > 100 µM (inactive) | > 100 µM (inactive) | > 100 µM (inactive) | > 100 µM (inactive) | > 100 µM (inactive) | > 100 µM (inactive) | > 100 µM (inactive) | > 100 µM (inactive) | > 100 µM (inactive) | > 100 µM (inactive) | > 100 µM (inactive) | > 100 µM (inactive) | > 100 µM (inactive)
11 | COC(=O)c1c(C)cc(OC)c(C/C=C(\C)CCCc2coc(C=C(C)C)c2)c1OC | > 100 µM (inactive) | – | > 100 µM (inactive) | > 100 µM (inactive) | > 100 µM (inactive) | > 100 µM (inactive) | > 100 µM (inactive) | > 100 µM (inactive) | > 100 µM (inactive) | > 100 µM (inactive) | > 100 µM (inactive) | > 100 µM (inactive) | > 100 µM (inactive) | > 100 µM (inactive) | > 100 µM (inactive) | > 100 µM (inactive) | > 100 µM (inactive) | > 100 µM (inactive) | > 100 µM (inactive) | –
12 | CCOC(=O)c1ccc(NC(=O)O/N=C(/Cl)CCl)cc1 | > 100 µM (inactive) | 15.2 µM (inactive) | 12.6 µM (inactive) | > 10 µM (inactive) | 50.1 µM (inactive) | > 100 µM (inactive) | – | 15.4 µM (inactive) | 50.1 µM (inactive) | – | – | 24.5 µM (inactive) | 37.6 µM (inactive) | 86.7 µM (inactive) | 30.8 µM (inactive) | 17.6 µM (inactive) | 28.4 µM (inactive) | – | 37.8 µM (inactive) | 75.3 µM (inactive)
13 | N#C/C(=C/NC(=S)Nc1ccc(S(N)(=O)=O)cc1)C(N)=O | > 100 µM (inactive) | > 100 µM (inactive) | > 100 µM (inactive) | > 100 µM (inactive) | > 100 µM (inactive) | > 100 µM (inactive) | > 100 µM (inactive) | > 100 µM (inactive) | – | > 100 µM (inactive) | > 100 µM (inactive) | – | > 100 µM (inactive) | > 100 µM (inactive) | > 100 µM (inactive) | > 100 µM (inactive) | > 100 µM (inactive) | > 100 µM (inactive) | > 100 µM (inactive) | > 100 µM (inactive)
14 | CC1CN=C(N(C(=O)Nc2ccccc2)c2ccccc2)S1 (configuration not stated) | 39.5 µM (inactive) | 10.6 µM (inactive) | 37.2 µM (inactive) | 35.9 µM (inactive) | 39.7 µM (inactive) | 39.9 µM (inactive) | – | 32.7 µM (inactive) | 18.8 µM (inactive) | – | – | 22 µM (inactive) | 24.9 µM (inactive) | 90.4 µM (inactive) | 37.9 µM (inactive) | 13.9 µM (inactive) | 20.6 µM (inactive) | – | 24.1 µM (inactive) | > 100 µM (inactive)
15 | C=C(C)[C@@H]1CC[C@]2(C(=O)O)CC[C@]3(C)[C@H](CCC4[C@@]5(C)CC[C@H](C(=O)/C=C/c6ccc(O)c(O)c6)C(C)(C)[C@@H]5CC[C@]43C)[C@@H]12 (some centres not stated) | 4.35 µM (inactive) | – | 2.72 µM (inactive) | 1.88 µM (inactive) | 2.77 µM (inactive) | 2.9 µM (inactive) | – | 2.2 µM (inactive) | 3.34 µM (inactive) | 3.39 µM (inactive) | 2.29 µM (inactive) | 5.46 µM (inactive) | 10.7 µM (inactive) | 12.7 µM (inactive) | 3.75 µM (inactive) | – | 11 µM (inactive) | 3.77 µM (inactive) | 3.89 µM (inactive) | 4.42 µM (inactive)

Source: ChEMBL document CHEMBL1201862, “PubChem BioAssay data set” (2004)
